By Kd is commonly meant the equilibrium constant for the complex coming apart. Read a high Kd as a looser complex.

Entries after “also recorded” stand apart in the source; their conditions may differ. Where two headings read alike, the source gives them in different places. Ends that are not written are not given here.

For data set [1], the system named is K562 cells. The data set can be described thus: Cytotoxicity of activated PBMC/lymphocytes against K562 cells (Cytotox 96). It is filed as cell-based, human. The procedure: (§1) Human leukemic cell line K562 and THP-1 cell line were cultured in RPMI-1640 (Himedia Laboratories Private Limited, Maharashtra, India) and 10% FCS (Cytiva Livescience™, Marlborough, MA, USA). This cell line was obtained from the cell line collection of N. N. Blokhin National Medical Research Center of Oncology of the Ministry of Health of Russia. […] The cells were sorted using sets of magnetic beads for isolation of CD14+, CD16+, CD56+, CD8+, and CD4+ according to the manufacturer’s protocol (all were produced by Thermo Fisher Scientific, Waltham, MA, USA).
(§2) For cytotoxicity tests, cells of the K562 line were cultured in 96-well plates (Guangzhou Jet Bio-Filtration Co., Guangzhou, China) (6 × 10^4 per well) mixed with lymphocytes added at a 20:1 ratio and incubated at 37 °C in a 5% CO2 atmosphere for 3 to 24 h). In the inhibition assays, cells were pre-incubated for 1 h with the LP17 ([…]) (Thermo Fisher Scientific, Boston, MA, USA), abTREM1 (ABclonal, Woburn, MA, USA), anti-NKG2D, anti-granzyme B, caspase 3 inhibitor Ac-IEID-CHO, RIP1 kinase inhibitor necrostatin1, TLR4 inhibitor, anti-MicA, anti-FasL, anti-CD94 antibody (concentration was 20 μg/mL for all inhibitors and all from Thermo Fisher Scientific, Waltham, MA, USA) and then the lymphocytes were added.
(§3) Cytotoxicity was measured using a Cytotox 96 analysis kit (Promega, Madison, WI, USA) after 24 h of incubation in accordance with the manufacturer’s protocol.

Data set [2] concerns CD94 receptor. The data set can be described thus: Interaction with CD94 receptor (judged from PBMC cytotoxicity). Format: cell-based, human. Conditions: concluded from cytotoxicity experiments. The procedure: as §1
For cytotoxicity tests, cells of the K562 line were cultured in 96-well plates (Guangzhou Jet Bio-Filtration Co., Guangzhou, China) (6 × 10^4 per well) mixed with lymphocytes added at a 20:1 ratio and incubated at 37 °C in a 5% CO2 atmosphere for 3 to 24 h). […]
as §3

The target of data set [3] is T1, TREM-1 (Homo sapiens, UniProt Q9NP99).
T1 construct: causes dissociation of the TREM-1 exocellular domain; made in house
T1 sequence (Q9NP99 21-205 limits assumed): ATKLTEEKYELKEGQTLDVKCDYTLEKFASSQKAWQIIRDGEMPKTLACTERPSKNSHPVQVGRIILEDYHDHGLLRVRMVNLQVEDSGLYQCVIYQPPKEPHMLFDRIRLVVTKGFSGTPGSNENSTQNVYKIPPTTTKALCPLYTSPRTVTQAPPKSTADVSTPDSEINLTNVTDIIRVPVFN
The data set can be described thus: Interaction with / dependence on TREM-1 (judged from cytotoxicity blocking and binding experiments). Format: cell-based. The conditions noted are these: for effect on interaction of TREM-1 with its ligands: ligands N7 peptide, HMGB1, full-length Hsp70, judged from PBMC cytotoxicity. How it is done:
as §1, §2, §3

For data set [4], the target named is T1, TREM-1. The conditions noted are these: cited from earlier work.
The subject of data set [5] is HLA-negative tumor cells. Conditions: cited from earlier work.
In data set [6] the target is T1, TREM-1. Nature of the data set: Microscale thermophoresis, binding to TREM-1. Conditions: sTREM-1 labeled with Alexa Fluor 488, 30 min in the dark at room temperature, 16 concentrations by sequential dilution, Monolith NT 115, 8% IR laser power, at least three replicates. How it is done: The purified sTREM-1 protein was labeled using an Alexa FluorTM 488 Protein Labeling Kit (Life Technologies Corporation, Eugene, OR, USA) in accordance with the manufacturer’s protocol.
The N7 peptide and TKD (C = 200 nM for all) were incubated for 30 min in the dark at room temperature in 16 different concentrations obtained through sequential dilution, starting with the highest soluble concentration. The samples were transferred to glass capillaries (Monolith NT Capillaries, NanoTemper Technologies GmbH, München, Germany) and then analyzed using a Nano-Temperature Monolith NT 115 device (8% IR laser power). The signal quality was monitored using a NanoTemper Monolith device to detect possible autofluorescence of the ligand, aggregation, or changes in the photobleaching rate. The experiments were carried out in at least three replicates and processed using affinity analysis software (MO Control v.1.6.1, NanoTemper Technologies GmbH, München, Germany).
A general note: In MST a laser heats a spot of the sample, and binding alters the fluorescence response.

The test system of data set [7] is ICR mice. Nature of the data set: LPS-induced sepsis in mice, survival. Format: in vivo. The conditions noted are these: N7.1 120 µg per mouse i.v. 1 h after LPS. The procedure:
Female ICR mice weighing 25 ± 1.1 g (7-week-old) were obtained from the Animal Breeding Facility of IBCh RAS (Bioresource Collection supported by the Ministry of Science and Higher Education of the Russian Federation, contract No. 075-15-2025-486). During the experiment, all mice were maintained in a specific pathogen-free (SPF) state under a strict light cycle (lights on at 07:00 h and off at 19:00 h), at 22 ± 2 °C and 50 ± 10% relative humidity. Animals were provided ad libitum access to a standard laboratory autoclavable rodent diet.
Twenty-one mice were used for the present study. The animals were randomly assigned to three groups with seven animals in each group: (1) control, intact animals; (2) intravenous injection of physiological saline (100 μL 0.9% NaCl) as a placebo during LPS-induced sepsis; (3) intravenous injection of peptide N7.1 (120 µg in 100 µL saline per mouse) during LPS-induced sepsis. LPS-induced sepsis was stimulated by an intraperitoneal injection of 0.6 mg lipopolysaccharides from Salmonella enterica Serotype Typhimurium (Sigma-Aldrich Co., St. Louis, MO, USA). Due to the small fluctuation in animal weight, weight-based dosing of LPS was not used. Drug treatment (saline or peptide N7.1) was carried out 1 h after LPS-induced sepsis.

The mark [8] stands for this setting: 4th day of PBMC incubation with N7, magnetic separation, K562, n = 5.
The mark [9] stands for this setting: 6th day of PBMC incubation with N7, magnetic separation, K562, n = 5.

Regarding SDNQPGVLIQVYEGEK [N7], in data set [1] (setting [8]), the “cytotoxic activity of CD4+ T lymphocytes” value is “activated”, the “cytotoxic activity of CD8+ T lymphocytes” value is reported as “No traces of cytotoxic activity” and the “cytotoxic activity of NK cells” value was “reached their maximum activity”. In addition, in data set [1] (setting [9]), the “cytotoxic activity of CD4+ T lymphocytes” value was “remained”, the “cytotoxic activity of CD8+ T lymphocytes” value is listed as “appeared” and the “cytotoxic activity of NK cells” value was “completely disappeared”. The “induction of cytotoxic lymphocytes” value in data set [1] (PBMC 6 days with synthetic peptide (10^−9 M), MHC-negative K562 cells 24 h, n = 5) is recorded as “cytotoxic lymphocytes appear in the population, killing MHC-negative K562 tumor cells”.
Consider “AMTKDNNLLGR [N9, 11-membered peptide from fraction No. 9; can be considered as a shortened TKD peptide]”, for which, in data set [1] (human PBMC ex vivo with peptide, K562 target cells), the lymphocyte populations activated result is recorded as “activates CD94+ NK cells”. For the same compound, in data set [2], the “interaction with CD94 receptor” value was “interact with the CD94 receptor”. Further, the “interaction with TREM-1” value in data set [3] (concluded from LP17 blocking and binding experiments) is reported as “does not interact with the TREM-1 receptor”.
Take “LQVTDSGLYRCVIYHPP [LP17, reference compound]”: in data set [4] (ref [24]), the TREM-1 signaling inhibition entry is on record as “TREM-1 signaling inhibitor”.
Turning to “Hsp70: recombinant human Hsp70, expressed in Escherichia coli M15”, the TREM-1 ligand entry in data set [4] (ref [19]) is given as “ligand of the TREM-1 innate immunity receptor”. Also, the “activation of cytotoxic lymphocytes” value in data set [5] is “activates TREM-1-dependent and TREM-1-independent cytotoxic lymphocytes that kill HLA-negative tumor cells”.
`CC(C)C[C@H](NC(=O)[C@H](CC(C)C)NC(=O)[C@H](CC(N)=O)NC(=O)[C@H](CC(N)=O)NC(=O)[C@H](CC(=O)O)NC(=O)[C@H](CCCCN)NC(=O)[C@@H](N)[C@@H](C)O)C(=O)NCC(=O)N[C@@H](CCCNC(=N)N)C(=O)N[C@@H](Cc1ccccc1)C(=O)N[C@@H](CCC(=O)O)C(=O)N[C@@H](CC(C)C)C(=O)N[C@@H](CO)C(=O)NCC(=O)O` [TKD] had a Kd in data set [6] of 3 µM.
Turning to actin, in data set [4] (ref [30],[31],[32],[33]), the TREM-1 ligand entry is reported as “TREM-1 ligands”.
On to “Ac-IEID-aldehyde [caspase 3 inhibitor, reference compound]”, for which the “effect of inhibitor on activity of NK cells” value in data set [1] (NK cells activated by N7, inhibitor pre-incubated 1 h (20 μg/mL), K562, n = 5) is reported as “blocked”.
Consider “PGLYRP1: innate immunity protein PGLYRP1, TREM-1 ligand”, for which the TREM-1 ligand result in data set [4] (ref [30],[31],[32],[33]) was “TREM-1 ligands”.
As to `CN1C(=O)C(Cc2c[nH]c3ccccc23)NC1=S` (centres unmarked) [inhibitor of RIP1 kinase, necrostatin1, reference compound], the “effect of inhibitor on cytotoxic signal” value in data set [1] (CD8+ and CD4+ T lymphocytes activated by N7, 6 days, inhibitor pre-incubated 1 h (20 μg/mL), K562 3 or 24 h, n = 5) is reported as “prevent the induction of cytotoxic signal”.
For the compound “SDNQPGVL [N7.1, N-terminal fragment of N7 peptide]”, the “effect on lymphocyte activation by TREM-1 ligands” value in data set [1] (PBMC pre-incubated with shortened peptide, then N7 peptide, HMGB1 or Hsp70 for 6 days, K562 24 h) is “blocks the activation of lymphocytes by all the ligands studied”. Besides, the “effect in development of sepsis” value in data set [7] (LPS-induced sepsis in mice) is recorded as “protective effects in the development of sepsis in mice”. In data set [7] (female ICR mice, n = 7, 0.6 mg S. enterica LPS i.p., observed to 120 h, saline 29%), the “surviving animals (survival rate)” value is 86%. Further, the results for the “effect on interaction of TREM-1 with its ligands” value in data set [3] and in data set [3] (listed as SDNQPGVL) were “inhibits the interaction of TREM-1 with its ligands; also recorded: prevent interaction of the TREM-1 receptor with its ligands in vitro” and “competes with other ligands”, respectively.

The values are drawn from paper PMC12525431, “Hsp70 Peptides Induce TREM-1-Dependent and TREM-1-Independent Activation of Cytotoxic Lymphocytes” (International Journal of Molecular Sciences, 2025).
